Eight molecules from PubChem BioAssay (NCI) can be followed below.

Among the test systems are M14 melanoma; MOLT-4 leukemia; HOP-92 NSCLC; HCT-15 colon; UACC-62 melanoma; ACHN renal; CCRF-CEM leukemia; SW-620 colon; 786-0 renal; SNB-75 CNS.
Common to all, as to assay: growth of human tumour cells (NCI), 48 h

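48-hour exposure; five concentrations; linearly interpolated endpoints. GI50 is the concentration that inhibits growth by half. TGI: concentration producing complete growth inhibition.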 Where only a bound is given, the exact number is not on record here.

Consider `NC(N)=NCCCCCNc1noc(Cc2c[nH]c3cc(Br)ccc23)n1`, for which the GI50 with M14 melanoma was 10.8 µM; with MOLT-4 leukemia it was 8.12 µM; with HOP-92 NSCLC it was 2.96 µM; with HCT-15 colon it was 60.5 µM; with UACC-62 melanoma, 7.48 µM; in the assay with ACHN renal, 39.9 µM. For the same molecule, the GI50 in the assay on CCRF-CEM leukemia was 13.9 µM; with SW-620 colon, 20 µM; with 786-0 renal it was 23 µM. The TGI is 44.3 µM in the assay on M14 melanoma; 36.3 µM in the assay on MOLT-4 leukemia; 46.7 µM with HOP-92 NSCLC; above 100 µM in the assay with HCT-15 colon; 28.1 µM in the assay with UACC-62 melanoma; above 100 µM in the assay on ACHN renal. The results for the TGI in the assay on CCRF-CEM leukemia, in the assay on SW-620 colon and in the assay with 786-0 renal were 39.5 µM, above 100 µM and 86.3 µM, respectively.

For `COCCOc1cnc2ccn([C@H](C)c3nnc4c(F)cc(-c5cnn(C)c5)cn34)c(=O)c2c1`, the GI50 with M14 melanoma is above 100 µM; with MOLT-4 leukemia, above 100 µM; in the assay on HOP-92 NSCLC, 54.9 µM; with SNB-75 CNS it was 34.9 µM; in the assay on HCT-15 colon, above 100 µM; in the assay on UACC-62 melanoma, 56.4 µM. Also, the GI50 in the assay on ACHN renal, in the assay on CCRF-CEM leukemia, in the assay with SW-620 colon and in the assay on 786-0 renal was above 100 µM each time. Also, the TGI in the assay on M14 melanoma, in the assay on MOLT-4 leukemia, in the assay on HOP-92 NSCLC, with SNB-75 CNS, in the assay on HCT-15 colon and with UACC-62 melanoma was above 100 µM in each case. For the same molecule, the TGI in the assay on ACHN renal, with CCRF-CEM leukemia, with SW-620 colon and in the assay with 786-0 renal was above 100 µM in each case.

With `COc1cc2ncn(-c3cc(OCCc4ccccc4)c(C(N)=O)s3)c2cc1OC`, the GI50 in the assay with M14 melanoma is above 25 µM; in the assay with MOLT-4 leukemia, 12.4 µM; in the assay on HOP-92 NSCLC it was 19.6 µM; with SNB-75 CNS, above 25 µM; in the assay on HCT-15 colon it was above 25 µM; in the assay on UACC-62 melanoma it was above 25 µM. The GI50 in the assay with ACHN renal is above 25 µM; in the assay on CCRF-CEM leukemia it was 8.5 µM; in the assay with SW-620 colon, above 25 µM; in the assay on 786-0 renal, above 25 µM. Further, the TGI in the assay on M14 melanoma, in the assay with MOLT-4 leukemia, in the assay with HOP-92 NSCLC, in the assay with SNB-75 CNS, in the assay with HCT-15 colon and in the assay with UACC-62 melanoma was above 25 µM throughout. The TGI in the assay with ACHN renal, with CCRF-CEM leukemia, with SW-620 colon and with 786-0 renal was above 25 µM in each case.

Turning to `COc1ccc2c(O)cc3c(c2c1)[C@H](CCl)CN3C(=O)c1cc2cc(NC(=O)CCN3CCOCC3)ccc2[se]1`, the GI50 in the assay on MOLT-4 leukemia, in the assay with HOP-92 NSCLC, in the assay with SNB-75 CNS, with HCT-15 colon, with UACC-62 melanoma and in the assay with ACHN renal was below 0.001 µM in each case. Also, the GI50 in the assay on CCRF-CEM leukemia, in the assay on SW-620 colon and with 786-0 renal was below 0.001 µM each time. Moreover, the TGI with MOLT-4 leukemia is above 3.34 µM; with HOP-92 NSCLC, 0.00216 µM; in the assay on SNB-75 CNS, 0.00156 µM; with UACC-62 melanoma, below 0.001 µM; in the assay on ACHN renal, below 0.001 µM; in the assay on SW-620 colon, 1.05 µM. In the assay with 786-0 renal, this molecule displayed a TGI below 0.001 µM.

`Cc1cc(C2CC(O)C(CO)O2)cc2c(=O)[nH]c(N)nc12` (configuration not stated): the GI50 in the assay on M14 melanoma is above 100 µM; with MOLT-4 leukemia, above 100 µM; in the assay on HOP-92 NSCLC, above 100 µM; in the assay with SNB-75 CNS it was 81.3 µM; in the assay on HCT-15 colon, above 100 µM; with UACC-62 melanoma, above 100 µM. Also, the GI50 in the assay on CCRF-CEM leukemia, in the assay with SW-620 colon and in the assay on 786-0 renal was above 100 µM each time. The TGI with M14 melanoma, with MOLT-4 leukemia, in the assay on HOP-92 NSCLC, in the assay on SNB-75 CNS, with HCT-15 colon and in the assay on UACC-62 melanoma was above 100 µM in each case. The TGI in the assay on CCRF-CEM leukemia, with SW-620 colon and with 786-0 renal was above 100 µM throughout.

For `O=C(CSC(c1ccccc1)c1ccccc1)N/N=C/c1ccc(Cl)cc1Cl`, the GI50 is 29.2 µM with M14 melanoma; 19.6 µM in the assay on MOLT-4 leukemia; 31.1 µM in the assay on HOP-92 NSCLC; 37.6 µM with HCT-15 colon; 21.9 µM in the assay on UACC-62 melanoma; 26.6 µM in the assay on ACHN renal. The GI50 in the assay with CCRF-CEM leukemia is 31.5 µM; in the assay with SW-620 colon, 42 µM; in the assay on 786-0 renal, 40.1 µM. Also, the TGI in the assay with M14 melanoma is 87.2 µM; in the assay with MOLT-4 leukemia, 68.1 µM; in the assay on HOP-92 NSCLC, 83.4 µM; in the assay with HCT-15 colon, above 100 µM; in the assay with UACC-62 melanoma it was above 100 µM; with ACHN renal, 66.3 µM. Besides, the TGI in the assay with CCRF-CEM leukemia, with SW-620 colon and with 786-0 renal was above 100 µM each time.

Turning to `COC(=O)CCC(=O)CC1CC(=O)C2CCCN12` (configuration not stated), the TGI in the assay on M14 melanoma, with MOLT-4 leukemia, in the assay on HOP-92 NSCLC, with SNB-75 CNS, in the assay with UACC-62 melanoma and in the assay with ACHN renal was above 100 µM each time. Moreover, the TGI in the assay with CCRF-CEM leukemia, in the assay with SW-620 colon and in the assay on 786-0 renal was above 100 µM in each case.

On to `CN(CCCNC(=O)Cc1ccc2ccc3cccc4ccc1c2c34)CCCNc1cc(-c2ccc3ccccc3c2)nc2ccccc12`, for which the GI50 with M14 melanoma is 1.76 µM; with MOLT-4 leukemia it was 1.19 µM; in the assay with HOP-92 NSCLC it was 1.41 µM; in the assay on SNB-75 CNS, 1.45 µM; in the assay with HCT-15 colon it was 1.52 µM; with UACC-62 melanoma, 1.88 µM. The GI50 with ACHN renal is 1.42 µM; with SW-620 colon, 0.465 µM; in the assay with 786-0 renal it was 1.53 µM. For the same molecule, the TGI stood at 3.46 µM in the assay on M14 melanoma; 2.57 µM with MOLT-4 leukemia; 3.02 µM in the assay on HOP-92 NSCLC; 2.75 µM in the assay with SNB-75 CNS; 2.94 µM in the assay with HCT-15 colon; 3.46 µM with UACC-62 melanoma. The TGI is 2.87 µM with ACHN renal, 1.7 µM in the assay with SW-620 colon and 2.97 µM with 786-0 renal.
